For series [1], the system named is Tetranychus cinnabarinus mite larvae. In words: Larvicidal activity test, dipping method on bean seedling leaves. Format: in vivo. The conditions noted are these: for mortality at 1 µg/mL / mortality at 10 µg/mL / mortality at 100 µg/mL / mortality at 200 µg/mL / mortality at 0.1 µg/mL / mortality at 0.01 µg/mL / mortality at 0.05 µg/mL / mortality at 0.5 µg/mL: Tetranychus cinnabarinus, 96 h; for mortality at 1 µg/mL: read-out: mortality of mite larvae (%), 1 mg/L; for mortality at 10 µg/mL: read-out: mortality of mite larvae (%), 10 mg/L; for mortality at 100 µg/mL: read-out: mortality of mite larvae (%), 100 mg/L; for mortality at 200 µg/mL: read-out: mortality of mite larvae (%), 200 mg/L; for mortality at 0.1 µg/mL: read-out: mortality of mite larvae (%), 0.1 mg/L; for mortality at 0.01 µg/mL: read-out: mortality of mite larvae (%), 0.01 mg/L; for mortality at 0.05 µg/mL: read-out: mortality of mite larvae (%), 0.05 mg/L; for mortality at 0.5 µg/mL: read-out: mortality of mite larvae (%), 0.5 mg/L. In a few lines: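 Dipping method: larvae-infested bean seedling leaves were immersed 5–6 s in Tween-containing test solution, with a blank of additives only. Larvae had hatched over 5 days from eggs laid during 24 h at 25° C. Mortality % was counted 4 days later, in triplicate.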

Series [2] deals with Tetranychus cinnabarinus mite eggs. Kind of series: Activity against mite eggs, dipping method on bean seedling leaves. The conditions noted are these: for mortality at 1 µg/mL: read-out: mortality of mite eggs (%), 1 mg/L; for mortality at 10 µg/mL: read-out: mortality of mite eggs (%), 10 mg/L; for mortality at 100 µg/mL: read-out: mortality of mite eggs (%), 100 mg/L; for mortality at 200 µg/mL: read-out: mortality of mite eggs (%), 200 mg/L; for mortality at 0.5 µg/mL: read-out: mortality of mite eggs (%), 0.5 mg/L. Format: in vivo. In a few lines: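 Dipping method, three replicates each: leaves carrying 1-day-old mite eggs (24 h laying at 25° C.) immersed 5-6 s in compound solution or additive-only blank. Dead eggs counted 4 days later as percent of eggs treated.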

[3] abbreviates: Tetranychus cinnabarinus, 96 h, checked after 4 days.

The structures appear in SMILES notation. Several values for one entry are separate records, joined by “and”; a condition that tells them apart may be missing. Identical values can stand only once.

Turning to `O=S(=O)(Oc1ccc(C2COC(c3c(F)cccc3F)=N2)cc1)c1cccc(F)c1` (centres unmarked) [Compound R3-12], in series [1] (checked after 4 days), the mortality at 1 µg/mL is 50%, the mortality at 10 µg/mL was determined as 90%, the mortality at 100 µg/mL amounted to 100% and the mortality at 200 µg/mL was found to be 100%. In series [2] (setting [3]), the mortality at 1 µg/mL is 55%, the mortality at 10 µg/mL was 90%, the mortality at 100 µg/mL came to 100% and the mortality at 200 µg/mL came out at 100%.

As to `O=S(=O)(Oc1ccc(C2COC(c3c(F)cccc3F)=N2)cc1)c1ccc(C(F)(F)F)cc1` (centres unmarked) [Compound R3-13], in series [1] (checked after 4 days), the mortality at 0.1 µg/mL turned out to be 60%, the mortality at 1 µg/mL was 80%, the mortality at 10 µg/mL was 95% and the mortality at 100 µg/mL turned out to be 100%. Moreover, the mortality at 200 µg/mL in series [1] (checked after 4 days) was determined as 100%. For the same compound, in series [2] (setting [3]), the mortality at 1 µg/mL was 70%, the mortality at 10 µg/mL stood at 90%, the mortality at 100 µg/mL is 100% and the mortality at 200 µg/mL worked out at 100%.

Turning to `O=S(=O)(Oc1ccc(C2COC(c3c(F)cccc3F)=N2)cc1)c1ccc(F)cc1F` (centres unmarked) [Compound R3-14], in series [1] (checked after 4 days), the mortality at 0.1 µg/mL was found to be 60%, the mortality at 1 µg/mL was found to be 80%, the mortality at 10 µg/mL turned out to be 95% and the mortality at 100 µg/mL was 100%. The mortality at 200 µg/mL in series [1] (checked after 4 days) was found to be 100%. Further, in series [2] (setting [3]), the mortality at 1 µg/mL amounted to 50%, the mortality at 10 µg/mL was found to be 85%, the mortality at 100 µg/mL was 90% and the mortality at 200 µg/mL amounted to 100%.

As to `O=S(=O)(Oc1ccc(C2COC(c3c(F)cccc3F)=N2)cc1)c1ccc(F)c(F)c1F` (centres unmarked) [Compound R3-15], in series [1] (checked after 4 days), the mortality at 0.1 µg/mL turned out to be 65%, the mortality at 1 µg/mL was found to be 90%, the mortality at 10 µg/mL stood at 100% and the mortality at 100 µg/mL worked out at 100%. The mortality at 200 µg/mL in series [1] (checked after 4 days) turned out to be 100%. Besides, in series [2] (setting [3]), the mortality at 1 µg/mL is 65%, the mortality at 10 µg/mL was determined as 95%, the mortality at 100 µg/mL came out at 100% and the mortality at 200 µg/mL came out at 100%.

For `Cc1ccc(S(=O)(=O)Oc2ccc(C3COC(c4c(F)cccc4F)=N3)cc2)cc1` (centres unmarked) [Compound R3-16], in series [1] (checked after 4 days), the mortality at 1 µg/mL turned out to be 70%, the mortality at 10 µg/mL was 85%, the mortality at 100 µg/mL was found to be 100% and the mortality at 200 µg/mL was 100%. In addition, in series [2] (setting [3]), the mortality at 1 µg/mL amounted to 50%, the mortality at 10 µg/mL is 70%, the mortality at 100 µg/mL came out at 92% and the mortality at 200 µg/mL is 100%.

In the case of `CC(C)(C)c1ccc(S(=O)(=O)Oc2ccc(C3COC(c4c(F)cccc4F)=N3)cc2)cc1` (centres unmarked) [Compound R3-17], in series [1] (Tetranychus cinnabarinus eggs and larvae, etoxazole as reference), the “acaricidal activity compared with etoxazole” value is reported as “equivalent or better acaricidal activity compared with etoxazole”. Further, in series [1] (checked after 4 days), the mortality at 0.01 µg/mL amounted to 35%, the mortality at 0.05 µg/mL amounted to 50%, the mortality at 0.1 µg/mL amounted to 85% and the mortality at 0.5 µg/mL amounted to 90%. In series [1] (checked after 4 days), the mortality at 1 µg/mL was found to be 95%, the mortality at 10 µg/mL came out at 100%, the mortality at 100 µg/mL was found to be 100% and the mortality at 200 µg/mL was 100%. The mortality at 0.1 µg/mL in series [2] (Tetranychus cinnabarinus, 96 h, read-out: mortality of mite eggs (%), 0.1 mg/L, checked after 4 days) was 45%. Also, in series [2] (setting [3]), the mortality at 0.5 µg/mL was determined as 78%, the mortality at 1 µg/mL was 90%, the mortality at 10 µg/mL is 96% and the mortality at 100 µg/mL turned out to be 100%. The mortality at 200 µg/mL in series [2] (setting [3]) turned out to be 100%.

For the compound `O=S(=O)(Oc1ccc(C2COC(c3c(F)cccc3F)=N2)cc1)c1ccc2c(c1)OCCO2` (centres unmarked) [Compound R3-18], in series [1] (checked after 4 days), the mortality at 1 µg/mL is 50%, the mortality at 10 µg/mL was found to be 70%, the mortality at 100 µg/mL was 90% and the mortality at 200 µg/mL was 100%. Also, in series [2] (setting [3]), the mortality at 10 µg/mL stood at 50%, the mortality at 100 µg/mL is 70% and the mortality at 200 µg/mL amounted to 100%.

Consider `O=S(=O)(Oc1ccc(C2COC(c3c(F)cccc3F)=N2)cc1)c1cccc2ccccc12` (centres unmarked) [Compound R3-20], for which, in series [1] (checked after 4 days), the mortality at 1 µg/mL turned out to be 55%, the mortality at 10 µg/mL stood at 80%, the mortality at 100 µg/mL turned out to be 90% and the mortality at 200 µg/mL was determined as 100%. In series [2] (setting [3]), the mortality at 1 µg/mL was determined as 30%, the mortality at 10 µg/mL amounted to 70%, the mortality at 100 µg/mL stood at 80% and the mortality at 200 µg/mL is 100%.

For `O=S(=O)(Oc1ccc(C2COC(c3c(F)cccc3F)=N2)cc1)c1ccc2ccccc2c1` (centres unmarked) [Compound R3-21], in series [1] (checked after 4 days), the mortality at 0.1 µg/mL turned out to be 65%, the mortality at 1 µg/mL was found to be 95%, the mortality at 10 µg/mL is 100% and the mortality at 100 µg/mL is 100%. Further, in series [1] (checked after 4 days), the mortality at 200 µg/mL was 100%. In series [2] (setting [3]), the mortality at 1 µg/mL was found to be 65%, the mortality at 10 µg/mL turned out to be 90%, the mortality at 100 µg/mL turned out to be 95% and the mortality at 200 µg/mL was determined as 100%.

In the case of `N#Cc1ccc(S(=O)(=O)Oc2ccc(C3COC(c4c(F)cccc4F)=N3)cc2)cc1` (centres unmarked) [Compound R3-22], in series [1] (checked after 4 days), the mortality at 1 µg/mL is 40%, the mortality at 10 µg/mL stood at 70%, the mortality at 100 µg/mL was 95% and the mortality at 200 µg/mL amounted to 100%. In series [2] (setting [3]), the mortality at 1 µg/mL is 45%, the mortality at 10 µg/mL came to 70%, the mortality at 100 µg/mL came to 90% and the mortality at 200 µg/mL was 100%.

Regarding `CCOc1cc(C(C)(C)C)ccc1C1COC(c2c(F)cccc2F)=N1` (centres unmarked) [Etoxazole, reference compound], the “mortality of mite larvae (%)” value in series [1] (10 mg/L, checked after 4 days) worked out at 100%. In series [1] (checked after 4 days), the mortality at 0.01 µg/mL came to 30%, the mortality at 0.05 µg/mL was 30%, the mortality at 0.1 µg/mL amounted to 65% and the mortality at 0.5 µg/mL worked out at 80%. In series [1] (checked after 4 days), the mortality at 1 µg/mL was found to be 80%, the mortality at 10 µg/mL was determined as 90%, the mortality at 100 µg/mL was 100% and the mortality at 200 µg/mL turned out to be 100%. Further, the “mortality of mite eggs (%)” value in series [2] (0.1 mg/L, checked after 4 days) came out at 60%. The “mortality of mite eggs (%)” value in series [2] (0.5 mg/L, checked after 4 days) amounted to 60%. The “mortality of mite eggs (%)” value in series [2] (10 mg/L, checked after 4 days) was 100% and 95%. For the same compound, the LC50 in series [2] (Tetranychus cinnabarinus, 96 h, read-out: LC50 (against mite eggs), mite eggs, from regression y = ax + b) was 0.128 µg/mL. The mortality at 0.01 µg/mL in series [2] (Tetranychus cinnabarinus, 96 h, read-out: mortality of mite eggs (%), 0.01 mg/L, checked after 4 days) was found to be 30%. For the same compound, the mortality at 0.05 µg/mL in series [2] (Tetranychus cinnabarinus, 96 h, read-out: mortality of mite eggs (%), 0.05 mg/L, checked after 4 days) is 30%. Besides, in series [2] (setting [3]), the mortality at 0.5 µg/mL is 80%, the mortality at 1 µg/mL worked out at 70%, the mortality at 10 µg/mL was 90% and the mortality at 100 µg/mL stood at 100%. For the same compound, in series [2] (setting [3]), the mortality at 200 µg/mL stood at 100%.

Values taken from patent publication US12588678B2, “Oxazoline compound, synthesis method therefor and application thereof” (NANKAI UNIVERSITY, priority 2019, dated 2026).
